Experimental data: patent US11173151B2, “Substituted triazole derivatives and uses thereof” (BAYER AKTIENGESELLSCHAFT, priority 2017, dated 2021)

Experiments:
human V1a receptor = target: T1, human V1a receptor (Homo sapiens, UniProt P37288); experiment: Cellular in vitro assay for determining vasopressin receptor activity, V1a receptor cell line (CHO, aequorin luminescence); format: cell-based; conditions: for IC50: CHO cell line transfected with human V1a receptor, [Arg]-vasopressin at EC50 concentration, read-out: IC50 hV1a; for ratio IC50 hV2/hV1a: selectivity ratio IC50 hV2 / IC50 hV1a
T1 construct: expressed in transfected cells; host or cells: CHO K1 (ATCC), also stably transfected with a modified aequorin
Protocol: (§1) B-1. Cellular In Vitro Assay for Determining Vasopressin Receptor Activity
(§2) The identification of agonists and antagonists of the V1a and V2 vasopressin receptors from humans, rats and dogs as well as the quantification of the activity of the compounds of the invention is carried out using recombinant cell lines. These cell lines originally derive from a hamster's ovary epithelial cell (Chinese Hamster Ovary, CHO K1, ATCC: American Type Culture Collection, Manassas, Va. 20108, USA). The test cell lines constitutively express the human, rat or dog V1a or V2 receptors. In case of the Gαq-coupled V1a receptors, cells are also stably transfected with a modified form of the calcium-sensitive photoproteins aequorin (human and rat V1a) or obelin (dog V1a), which, after reconstitution with the cofactor coelenterazine, emit light when there are increases in free calcium concentrations [Rizzuto R, Simpson A W, Brini M, Pozzan T, Nature 358, 325-327 (1992); Illarionov B A, Bondar V S, Illarionova V A, Vysotski E S, Gene 153 (2), 273-274 (1995)]. The resulting vasopressin receptor cells react to stimulation of the recombinantly expressed V1a receptors by intracellular release of calcium ions, which can be quantified by the resulting photoprotein luminescence. The Gs-coupled V2 receptors are stably transfected into cell lines expressing the gene for firefly luciferase under control of a CRE-responsible promoter. Activation of V2 receptors induces the activation of the CRE-responsive promoter via cAMP increase, thereby inducing the expression of firefly luciferase. The light emitted by photoproteins of V1a cell lines as well as the light emitted by firefly luciferase of V2 cell lines corresponds to the activation or inhibition of the respective vasopressin receptor. The bioluminescence of the cell lines is detected using a suitable luminometer [Milligan G, Marshall F, Rees S, Trends in Pharmacological Sciences 17, 235-237 (1996)].
Vasopressin V1a Receptor Cell Lines:
On the day before the assay, the cells are plated out in culture medium (DMEM/F12, 2% FCS, 2 mM glutamine, 10 mM HEPES, 5 μg/ml coelenterazine) in 384-well microtiter plates and kept in a cell incubator (96% humidity, 5% v/v CO2, 37° C.). On the day of the assay, test compounds in various concentrations are placed for 10 minutes in the wells of the microtiter plate before the agonist [Arg]-vasopressin at EC50 concentration is added. The resulting light signal is measured immediately in a luminometer.
(§3) Table 1A below lists individual IC50 values for the compounds of the invention (including racemic mixtures as well as separated enantiomers) that were obtained from cell lines transfected with the human V1a or V2 receptor: […]

human V2 receptor = target: T2, human V2 receptor (Homo sapiens, UniProt P30518); experiment: Cellular in vitro assay for determining vasopressin receptor activity, V2 receptor cell line (CHO, CRE-luciferase); format: cell-based; conditions: CHO cell line transfected with human V2 receptor; [Arg8]-vasopressin at EC50 concentration, 3 hours; read-out: IC50 hV2
T2 construct: expressed in transfected cells; host or cells: CHO K1 (ATCC) expressing firefly luciferase under a CRE-responsive promoter
Protocol: as §1, §2
Vasopressin V2 Receptor Cell Lines:
On the day before the assay, the cells are plated out in culture medium (DMEM/F12, 2% FCS, 2 mM glutamine, 10 mM HEPES) in 384-well microtiter plates and kept in a cell incubator (96% humidity, 5% v/v CO2, 37° C.). On the day of the assay, test compounds in various concentrations and the agonist [Arg^8]-vasopressin at EC50 concentration are added together to the wells, and plates are incubated for 3 hours in a cell incubator. Upon addition of the cell lysis reagent Triton™ and the substrate luciferin, luminescence of firefly luciferase is measured in a luminometer.
as §3

T1 sequence (P37288 whole entry): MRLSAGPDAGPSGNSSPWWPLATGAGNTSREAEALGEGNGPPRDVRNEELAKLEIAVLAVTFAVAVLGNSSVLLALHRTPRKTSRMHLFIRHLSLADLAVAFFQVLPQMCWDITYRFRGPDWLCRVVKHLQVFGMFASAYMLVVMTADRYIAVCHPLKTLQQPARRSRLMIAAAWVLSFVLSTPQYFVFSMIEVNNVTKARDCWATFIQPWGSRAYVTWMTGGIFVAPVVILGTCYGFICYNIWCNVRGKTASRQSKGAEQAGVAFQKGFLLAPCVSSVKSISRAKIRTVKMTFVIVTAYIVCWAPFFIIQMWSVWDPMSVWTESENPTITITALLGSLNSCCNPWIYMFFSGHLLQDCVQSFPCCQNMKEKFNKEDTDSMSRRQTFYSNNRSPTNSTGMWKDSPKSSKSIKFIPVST
T2 sequence (P30518 whole entry): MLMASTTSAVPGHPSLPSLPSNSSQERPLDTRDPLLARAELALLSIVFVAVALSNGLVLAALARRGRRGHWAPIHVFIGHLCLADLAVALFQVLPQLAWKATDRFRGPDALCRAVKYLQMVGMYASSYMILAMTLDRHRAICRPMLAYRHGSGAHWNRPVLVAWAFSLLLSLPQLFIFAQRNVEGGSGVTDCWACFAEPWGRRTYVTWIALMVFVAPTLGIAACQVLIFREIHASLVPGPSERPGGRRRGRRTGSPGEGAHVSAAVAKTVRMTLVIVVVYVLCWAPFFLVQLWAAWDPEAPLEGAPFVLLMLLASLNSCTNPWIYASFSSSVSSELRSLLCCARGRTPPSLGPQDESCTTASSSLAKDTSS

Row | IC50 (human V1a receptor) [nM] | ratio IC50 hV2/hV1a (human V1a receptor) | IC50 (human V2 receptor) [nM] | Structure (SMILES)
1 | 1750 | 2.2 | 3850 | O=C1CCC(CNc2ccncc2-n2cnc(Cn3nc(-c4ccc(Cl)cc4)n(C[C@H](O)C(F)(F)F)c3=O)n2)N1 (mixture of isomers) [Example 7, 5-(4-Chlorophenyl)-2-({1-[4-({[5-oxopyrrolidin-2-yl]methyl}amino)pyridin-3-yl]-1H-1,2,4-triazol-3-yl}methyl)-4-[(2S)-3,3,3-trifluoro-2-hydroxypropyl]-2,4-dihydro-3H-1,2,4-triazol-3-one]
2 | 575 | 0.2 | 90.6 | CC1(O)CCN(c2ccncc2-n2cnc(Cn3nc(-c4ccc(Cl)cc4)n(C[C@H](O)C(F)(F)F)c3=O)n2)C1 (mixture of isomers) [Example 13, 5-(4-Chlorophenyl)-2-[(1-{4-[3-hydroxy-3-methylpyrrolidin-1-yl]pyridin-3-yl}-1H-1,2,4-triazol-3-yl)methyl]-4-[(2S)-3,3,3-trifluoro-2-hydroxypropyl]-2,4-dihydro-3H-1,2,4-triazol-3-one]
3 | 16.5 | 22.1 | 365 | O=C(Nc1ccncc1-n1cnc(Cn2nc(-c3ccc(Cl)cc3)n(C[C@H](O)C(F)(F)F)c2=O)n1)C1CC1(F)F (mixture of isomers) [Example 29, N-{3-[3-({3-(4-Chlorophenyl)-5-oxo-4-[(2S)-3,3,3-trifluoro-2-hydroxypropyl]-4,5-dihydro-1H-1,2,4-triazol-1-yl}methyl)-1H-1,2,4-triazol-1-yl]pyridin-4-yl}-2,2-difluorocyclopropanecarboxamide]
4 | 3.5 | 64.4 | 225 | O=C(Nc1cccnc1-n1cnc(Cn2nc(-c3ccc(Cl)cc3)n(C[C@H](O)C(F)(F)F)c2=O)n1)C1CC1(F)F (mixture of isomers) [Example 41, N-{2-[3-({3-(4-Chlorophenyl)-5-oxo-4-[(2S)-3,3,3-trifluoro-2-hydroxypropyl]-4,5-dihydro-1H-1,2,4-triazol-1-yl}methyl)-1H-1,2,4-triazol-1-yl]pyridin-3-yl}-2,2-difluorocyclopropanecarboxamide]
5 | 20.5 | 213.0 | 4370 | O=C(Nc1cccnc1-n1cnc(Cn2nc(-c3ccc(Cl)cc3)n(C[C@H](O)C(F)(F)F)c2=O)n1)C1CCS(=O)(=O)C1 (mixture of isomers) [Example 50, N-{2-[3-({3-(4-Chlorophenyl)-5-oxo-4-[(2S)-3,3,3-trifluoro-2-hydroxypropyl]-4,5-dihydro-1H-1,2,4-triazol-1-yl}methyl)-1H-1,2,4-triazol-1-yl]pyridin-3-yl}tetrahydrothiophene-3-carboxamide 1,1-dioxide]
6 | 5.13 | 185.4 | 950 | O=C(Nc1cccnc1-n1cnc(Cn2nc(-c3ccc(Cl)cc3)n(CC(O)C(F)(F)F)c2=O)n1)C1CC1F (mixture of isomers) [Example 59, N-{2-[3-({3-(4-Chlorophenyl)-5-oxo-4-[(2S)-3,3,3-trifluoro-2-hydroxypropyl]-4,5-dihydro-1H-1,2,4-triazol-1-yl}methyl)-1H-1,2,4-triazol-1-yl]pyridin-3-yl}-2-fluorocyclopropanecarboxamide]
7 | 6.6 | 197.0 | 1300 | O=C(Nc1ncccc1-n1cnc(Cn2nc(-c3ccc(Cl)cc3)n(C[C@H](O)C(F)(F)F)c2=O)n1)C1CC1(F)F (mixture of isomers) [Example 75, N-{3-[3-({3-(4-Chlorophenyl)-5-oxo-4-[(2S)-3,3,3-trifluoro-2-hydroxypropyl]-4,5-dihydro-1H-1,2,4-triazol-1-yl}methyl)-1H-1,2,4-triazol-1-yl]pyridin-2-yl}-2,2-difluorocyclopropanecarboxamide]
8 | 33 | 10.2 | 335 | O=C(Nc1ncccc1-n1cnc(Cn2nc(-c3ccc(Cl)cc3)n(C[C@H](O)C(F)(F)F)c2=O)n1)C1CCS(=O)(=O)C1 (mixture of isomers) [Example 82, N-{3-[3-({3-(4-Chlorophenyl)-5-oxo-4-[(2S)-3,3,3-trifluoro-2-hydroxypropyl]-4,5-dihydro-1H-1,2,4-triazol-1-yl}methyl)-1H-1,2,4-triazol-1-yl]pyridin-2-yl}tetrahydrothiophene-3-carboxamide 1,1-dioxide]
9 | 88 | 39.8 | 3500 | CC1(O)CCN(C(=O)c2ccccc2-n2cnc(Cn3nc(-c4ccc(Cl)cc4)n(C[C@H](O)C(F)(F)F)c3=O)n2)C1 (mixture of isomers) [Example 183, 5-(4-Chlorophenyl)-2-{[1-(2-{[3-hydroxy-3-methylpyrrolidin-1-yl]carbonyl}phenyl)-1H-1,2,4-triazol-3-yl]methyl}-4-[(2S)-3,3,3-trifluoro-2-hydroxypropyl]-2,4-dihydro-3H-1,2,4-triazol-3-one]
10 | 19.5 | 192.3 | 3750 | O=C1CCC(NC(=O)c2ccccc2-n2cnc(Cn3nc(-c4ccc(Cl)cc4)n(C[C@H](O)C(F)(F)F)c3=O)n2)CN1 (mixture of isomers) [Example 191]
11 | 22 | 38.9 | 855 | NC(CNC(=O)c1ccccc1-n1cnc(Cn2nc(-c3ccc(Cl)cc3)n(C[C@H](O)C(F)(F)F)c2=O)n1)C(F)(F)C(F)F (mixture of isomers) [Example 196, N-[2-Amino-3,3,4,4-tetrafluorobutyl]-2-[3-({3-(4-chlorophenyl)-5-oxo-4-[(2S)-3,3,3-trifluoro-2-hydroxypropyl]-4,5-dihydro-1H-1,2,4-triazol-1-yl}methyl)-1H-1,2,4-triazol-1-yl]benzamide]
12 | 750 | 133.3 | – | O=C(c1ncccc1-n1cnc(Cn2nc(-c3ccc(Cl)cc3)n(C[C@@H](O)C(F)(F)F)c2=O)n1)N1CCNC(C(F)(F)F)C1 (mixture of isomers) [Example 476, 5-(4-Chlorophenyl)-4-[(2R)-3,3,3-trifluoro-2-hydroxypropyl]-2-{[1-(2-{[3-(trifluoromethyl)piperazin-1-yl]carbonyl}pyridin-3-yl)-1H-1,2,4-triazol-3-yl]methyl}-2,4-dihydro-3H-1,2,4-triazol-3-one]
13 | 5300 | 18.9 | – | O=C(N[C@H]1C[C@@H]1F)c1ncccc1-n1nc(Cn2nc(-c3ccc(Cl)cc3)n(C[C@@H](O)C(F)(F)F)c2=O)nc1N1CCS(=O)(=O)CC1 (racemic) [Example 487, 3-[3-({3-(4-Chlorophenyl)-5-oxo-4-[(2R)-3,3,3-trifluoro-2-hydroxypropyl]-4,5-dihydro-1H-1,2,4-triazol-1-yl}methyl)-5-(1,1-dioxidothiomorpholin-4-yl)-1H-1,2,4-triazol-1-yl]-N-[2-fluorocyclopropyl]pyridine-2-carboxamide]
14 | 560 | 178.6 | – | O=C1CN(C(=O)c2ncccc2-n2cnc(Cn3nc(-c4ccc(Cl)cc4)n(C[C@@H](O)C(F)(F)F)c3=O)n2)CCN1 [Example 469, 4-({3-[3-({3-(4-Chlorophenyl)-5-oxo-4-[(2R)-3,3,3-trifluoro-2-hydroxypropyl]-4,5-dihydro-1H-1,2,4-triazol-1-yl}methyl)-1H-1,2,4-triazol-1-yl]pyridin-2-yl}carbonyl)piperazin-2-one]
